Experimental data from ChEMBL document CHEMBL5291721, “A preclinical secondary pharmacology resource illuminates target-adverse drug reaction associations of marketed drugs” (Nat Commun, 2023).

Tests used:
Thromboxane A2 receptor = molecular target: T1, Thromboxane A2 receptor (Homo sapiens, UniProt P21731)
T1 sequence (P21731 whole entry): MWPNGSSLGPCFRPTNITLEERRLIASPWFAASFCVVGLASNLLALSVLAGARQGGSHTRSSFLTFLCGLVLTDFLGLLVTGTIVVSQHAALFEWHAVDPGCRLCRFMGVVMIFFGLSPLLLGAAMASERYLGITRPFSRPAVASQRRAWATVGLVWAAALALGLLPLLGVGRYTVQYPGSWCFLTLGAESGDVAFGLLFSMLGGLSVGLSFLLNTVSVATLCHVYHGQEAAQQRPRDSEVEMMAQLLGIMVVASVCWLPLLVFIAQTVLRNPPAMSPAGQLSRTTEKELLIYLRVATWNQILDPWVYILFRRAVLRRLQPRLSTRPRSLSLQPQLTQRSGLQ

[1] = molecular target: T2, Equilibrative nucleoside transporter 1 (Homo sapiens, UniProt Q99808)
T2 sequence (Q99808 whole entry): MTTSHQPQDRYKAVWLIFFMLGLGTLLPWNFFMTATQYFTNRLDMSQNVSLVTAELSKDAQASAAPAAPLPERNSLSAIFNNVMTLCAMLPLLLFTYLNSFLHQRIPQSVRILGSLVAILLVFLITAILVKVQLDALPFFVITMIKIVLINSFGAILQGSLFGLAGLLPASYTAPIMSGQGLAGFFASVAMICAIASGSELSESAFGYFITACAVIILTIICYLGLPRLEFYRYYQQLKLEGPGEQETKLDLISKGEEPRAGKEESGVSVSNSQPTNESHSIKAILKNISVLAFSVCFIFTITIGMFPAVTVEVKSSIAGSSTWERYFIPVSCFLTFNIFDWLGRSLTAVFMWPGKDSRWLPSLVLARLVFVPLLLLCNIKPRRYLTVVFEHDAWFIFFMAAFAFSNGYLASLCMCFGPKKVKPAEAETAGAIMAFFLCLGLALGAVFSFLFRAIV

[2] = molecular target: T3, Neuropeptide Y receptor type 1 (Homo sapiens, UniProt P25929)
T3 sequence (P25929 whole entry): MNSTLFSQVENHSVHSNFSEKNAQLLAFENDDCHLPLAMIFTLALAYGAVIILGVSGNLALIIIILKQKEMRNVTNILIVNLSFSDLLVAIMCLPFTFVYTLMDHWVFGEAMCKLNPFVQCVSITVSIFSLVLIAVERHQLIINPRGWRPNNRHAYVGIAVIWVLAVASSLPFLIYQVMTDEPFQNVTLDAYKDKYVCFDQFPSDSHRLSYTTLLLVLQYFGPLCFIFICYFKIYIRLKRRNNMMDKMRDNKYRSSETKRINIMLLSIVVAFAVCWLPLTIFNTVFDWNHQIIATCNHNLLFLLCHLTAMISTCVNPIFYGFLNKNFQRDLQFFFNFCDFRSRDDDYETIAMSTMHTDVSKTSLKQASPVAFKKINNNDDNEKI

[3] = molecular target: Sodium-dependent dopamine transporter (Homo sapiens, UniProt Q01959)
Sequence of Sodium-dependent dopamine transporter (Q01959 whole entry): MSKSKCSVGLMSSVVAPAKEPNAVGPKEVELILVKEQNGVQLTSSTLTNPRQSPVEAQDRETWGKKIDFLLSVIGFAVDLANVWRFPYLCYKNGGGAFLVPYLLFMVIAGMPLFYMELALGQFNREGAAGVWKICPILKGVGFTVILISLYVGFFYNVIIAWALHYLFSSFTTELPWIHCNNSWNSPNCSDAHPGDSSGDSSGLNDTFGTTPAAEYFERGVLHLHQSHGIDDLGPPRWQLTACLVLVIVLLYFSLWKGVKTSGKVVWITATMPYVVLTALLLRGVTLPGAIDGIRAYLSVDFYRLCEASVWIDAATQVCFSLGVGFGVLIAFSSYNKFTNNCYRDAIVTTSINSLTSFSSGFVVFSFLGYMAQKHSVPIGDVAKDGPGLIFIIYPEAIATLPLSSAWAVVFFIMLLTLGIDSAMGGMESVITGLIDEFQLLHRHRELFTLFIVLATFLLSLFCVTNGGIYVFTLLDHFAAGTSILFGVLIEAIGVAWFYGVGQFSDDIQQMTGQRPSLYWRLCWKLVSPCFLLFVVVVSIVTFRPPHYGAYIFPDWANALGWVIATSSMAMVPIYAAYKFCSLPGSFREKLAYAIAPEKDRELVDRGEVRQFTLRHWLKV

[4] = molecular target: T4, Alpha-2A adrenergic receptor (Homo sapiens, UniProt P08913); format: functional, cell-based
T4 sequence (P08913 whole entry): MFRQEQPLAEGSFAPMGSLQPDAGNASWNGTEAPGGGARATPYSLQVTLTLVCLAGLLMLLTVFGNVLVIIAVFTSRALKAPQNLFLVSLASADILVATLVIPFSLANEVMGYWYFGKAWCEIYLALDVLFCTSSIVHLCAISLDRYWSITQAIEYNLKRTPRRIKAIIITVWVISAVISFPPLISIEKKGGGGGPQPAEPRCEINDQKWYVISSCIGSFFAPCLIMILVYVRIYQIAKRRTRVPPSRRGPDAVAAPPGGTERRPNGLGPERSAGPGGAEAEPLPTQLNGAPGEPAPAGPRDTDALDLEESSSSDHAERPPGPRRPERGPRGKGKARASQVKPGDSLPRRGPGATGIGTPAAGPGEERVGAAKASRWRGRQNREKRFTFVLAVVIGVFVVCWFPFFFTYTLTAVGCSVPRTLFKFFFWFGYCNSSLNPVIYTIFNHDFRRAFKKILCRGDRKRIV

[5] = molecular target: T5, Prostaglandin G/H synthase 1 (Rattus norvegicus, UniProt Q63921); format: functional
T5 sequence (Q63921 whole entry): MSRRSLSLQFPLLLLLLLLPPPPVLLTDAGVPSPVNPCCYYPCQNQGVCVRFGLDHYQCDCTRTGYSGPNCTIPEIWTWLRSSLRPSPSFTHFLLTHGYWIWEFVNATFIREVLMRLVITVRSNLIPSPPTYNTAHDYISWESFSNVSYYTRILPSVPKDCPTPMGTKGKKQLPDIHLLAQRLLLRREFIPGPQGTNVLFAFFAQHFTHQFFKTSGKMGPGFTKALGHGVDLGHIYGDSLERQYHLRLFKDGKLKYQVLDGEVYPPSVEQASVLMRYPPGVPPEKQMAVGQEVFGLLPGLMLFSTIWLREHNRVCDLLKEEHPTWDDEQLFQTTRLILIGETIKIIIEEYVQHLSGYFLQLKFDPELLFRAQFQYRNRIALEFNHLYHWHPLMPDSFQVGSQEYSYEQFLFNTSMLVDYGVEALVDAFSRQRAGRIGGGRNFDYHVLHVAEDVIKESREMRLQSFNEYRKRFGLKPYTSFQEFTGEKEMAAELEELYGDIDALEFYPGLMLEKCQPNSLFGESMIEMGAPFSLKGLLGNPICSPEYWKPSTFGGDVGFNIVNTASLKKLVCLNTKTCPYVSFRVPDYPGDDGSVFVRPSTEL

B2 bradykinin receptor = molecular target: T6, B2 bradykinin receptor (Homo sapiens, UniProt P30411)
T6 sequence (P30411 whole entry): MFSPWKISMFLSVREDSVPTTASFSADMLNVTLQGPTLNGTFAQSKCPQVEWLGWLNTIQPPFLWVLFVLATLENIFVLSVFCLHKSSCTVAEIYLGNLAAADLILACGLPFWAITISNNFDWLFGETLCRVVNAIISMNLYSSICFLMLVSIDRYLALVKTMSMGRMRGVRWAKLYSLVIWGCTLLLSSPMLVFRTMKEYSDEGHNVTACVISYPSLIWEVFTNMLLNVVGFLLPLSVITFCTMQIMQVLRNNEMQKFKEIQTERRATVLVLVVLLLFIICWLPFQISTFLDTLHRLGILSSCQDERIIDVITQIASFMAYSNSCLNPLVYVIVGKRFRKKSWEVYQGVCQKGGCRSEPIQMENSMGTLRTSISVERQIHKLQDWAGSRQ

Cannabinoid receptor 1 = Cannabinoid receptor 1 (Homo sapiens, UniProt P21554); format: functional, cell-based
Sequence of Cannabinoid receptor 1 (P21554 whole entry): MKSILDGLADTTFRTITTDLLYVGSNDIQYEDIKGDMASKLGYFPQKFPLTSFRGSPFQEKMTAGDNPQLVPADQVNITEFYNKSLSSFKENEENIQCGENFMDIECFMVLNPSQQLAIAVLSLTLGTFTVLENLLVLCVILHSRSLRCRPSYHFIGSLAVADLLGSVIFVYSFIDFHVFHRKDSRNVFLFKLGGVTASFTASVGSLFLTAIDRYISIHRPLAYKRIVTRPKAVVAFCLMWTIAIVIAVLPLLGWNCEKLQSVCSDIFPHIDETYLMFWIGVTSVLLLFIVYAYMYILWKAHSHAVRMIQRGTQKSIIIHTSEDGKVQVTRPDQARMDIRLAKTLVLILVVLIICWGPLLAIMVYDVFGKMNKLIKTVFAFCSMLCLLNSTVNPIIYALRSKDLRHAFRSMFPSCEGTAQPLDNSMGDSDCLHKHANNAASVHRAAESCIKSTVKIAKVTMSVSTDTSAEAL

[6] = molecular target: Muscarinic acetylcholine receptor M3 (Homo sapiens, UniProt P20309)
Sequence of Muscarinic acetylcholine receptor M3 (P20309 whole entry): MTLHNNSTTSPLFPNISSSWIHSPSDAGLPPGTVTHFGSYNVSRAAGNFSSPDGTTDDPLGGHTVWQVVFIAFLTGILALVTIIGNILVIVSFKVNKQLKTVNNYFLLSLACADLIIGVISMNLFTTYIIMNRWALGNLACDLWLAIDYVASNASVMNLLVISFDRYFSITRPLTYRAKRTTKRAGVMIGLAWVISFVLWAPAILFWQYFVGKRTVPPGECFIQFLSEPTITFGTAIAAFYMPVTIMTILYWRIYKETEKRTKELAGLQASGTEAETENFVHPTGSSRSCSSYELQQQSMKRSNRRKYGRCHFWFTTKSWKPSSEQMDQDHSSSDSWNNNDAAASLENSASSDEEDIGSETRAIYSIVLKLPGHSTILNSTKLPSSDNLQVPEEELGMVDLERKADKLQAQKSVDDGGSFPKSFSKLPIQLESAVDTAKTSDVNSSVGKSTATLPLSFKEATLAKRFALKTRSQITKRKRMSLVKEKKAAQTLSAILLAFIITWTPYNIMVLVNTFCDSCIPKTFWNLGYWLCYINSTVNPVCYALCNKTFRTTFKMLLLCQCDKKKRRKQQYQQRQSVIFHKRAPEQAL
Further: assay procedure not described here.

Row | SMILES | AC50 (Thromboxane A2 receptor) | AC50 [1] | AC50 [2] | AC50 [3] | AC50 [4] | AC50 [5] | AC50 (B2 bradykinin receptor) | AC50 (Cannabinoid receptor 1) | AC50 [6]
1 | COc1ccc(/C=C/C(=O)Nc2ccccc2C(=O)O)cc1OC | > 30 µM | > 30 µM | > 30 µM | > 30 µM | > 30 µM | 7.4 µM | > 30 µM | – | –
2 | NCCCC(O)(P(=O)(O)O)P(=O)(O)O [ALENDRONIC ACID] | > 30 µM | > 30 µM | > 30 µM | – | > 10 µM | – | > 30 µM | – | –
3 | Nc1ccc(C(=O)O)c(O)c1 [AMINOSALICYLIC ACID] | > 30 µM | – | > 30 µM | > 30 µM | > 30 µM | > 30 µM | > 30 µM | > 30 µM | –
4 | COc1cc(OC)c(C(=O)CCCN2CCCC2)c(OC)c1 [BUFLOMEDIL] | > 30 µM | > 30 µM | > 30 µM | > 30 µM | 6.1 µM | > 30 µM | > 30 µM | > 30 µM | –
5 | CS(=O)(=O)OCCCCOS(C)(=O)=O [BUSULFAN] | – | > 30 µM | > 30 µM | > 30 µM | > 30 µM | > 30 µM | > 30 µM | > 30 µM | –
6 | CCCCCCNC(=O)n1cc(F)c(=O)[nH]c1=O [CARMOFUR] | > 30 µM | > 30 µM | > 30 µM | > 30 µM | > 30 µM | > 30 µM | > 30 µM | – | –
7 | CC(C)(C)NCC(O)c1cc(Cl)c(N)c(Cl)c1 (stereo unspecified) [CLENBUTEROL] | > 30 µM | > 30 µM | > 30 µM | 27.1 µM | > 30 µM | > 30 µM | > 30 µM | > 30 µM | –
8 | COc1cccc2c1C(=O)c1c(O)c3c(c(O)c1C2=O)C[C@@](O)(C(C)=O)C[C@@H]3O[C@H]1C[C@H](N)[C@H](O)[C@H](C)O1 [DAUNORUBICIN] | 25 µM | 14.3 µM | > 10 µM | 17.7 µM | – | > 30 µM | > 10 µM | – | –
9 | CC(=O)OCC(CCn1cnc2cnc(N)nc21)COC(C)=O [FAMCICLOVIR] | > 30 µM | > 30 µM | > 30 µM | > 10 µM | > 10 µM | > 30 µM | > 30 µM | > 30 µM | –
10 | Nc1ccn([C@@H]2O[C@H](CO)[C@@H](O)C2(F)F)c(=O)n1 [GEMCITABINE] | > 30 µM | – | > 30 µM | > 30 µM | > 10 µM | > 30 µM | > 30 µM | > 30 µM | –
11 | COC1=C(OC)C(=O)C(CCCCCCCCCCO)=C(C)C1=O [IDEBENONE] | 31.2 µM | 21.9 µM | > 30 µM | > 10 µM | > 10 µM | > 30 µM | > 30 µM | > 30 µM | –
12 | CC1(C)C(/C=C/C=C/C=C/C=C2\N(CCCCS(=O)(=O)O)c3ccc4ccccc4c3C2(C)C)=[N+](CCCCS(=O)(=O)[O-])c2ccc3ccccc3c21 [INDOCYANINE GREEN ACID FORM] | – | 11 µM | > 30 µM | – | > 30 µM | 21 µM | 26 µM | – | 13 µM
13 | Nc1nc2c(c(=O)[nH]1)N(C=O)C(CNc1ccc(C(=O)N[C@@H](CCC(=O)O)C(=O)O)cc1)CN2 (stereo partly specified) [LEUCOVORIN] | > 30 µM | > 30 µM | > 30 µM | > 30 µM | > 30 µM | > 30 µM | > 30 µM | > 30 µM | –
14 | CCn1cc(C(=O)O)c(=O)c2cc(F)c(N3CCN(C)CC3)cc21 [PEFLOXACIN] | – | > 30 µM | > 30 µM | > 30 µM | > 30 µM | > 30 µM | > 30 µM | > 30 µM | –
15 | C[n+]1ccccc1/C=N/O [PRALIDOXIME] | – | – | – | – | > 30 µM | – | – | > 30 µM | –
16 | CCCNC(C)C(=O)Nc1ccccc1C (stereo unspecified) [PRILOCAINE] | – | > 30 µM | > 30 µM | > 30 µM | > 30 µM | > 30 µM | > 30 µM | > 30 µM | –
17 | CC(C)CC(N(C)C)C1(c2ccc(Cl)cc2)CCC1 (stereo unspecified) [SIBUTRAMINE] | > 30 µM | > 30 µM | > 30 µM | 0.75 µM | 30 µM | > 30 µM | > 30 µM | > 30 µM | –
18 | [H]/N=C(/N)N[C@H]1[C@H](O)[C@@H](O)[C@H](O[C@@H]2O[C@@H](C)[C@](O)(C=O)[C@H]2O[C@@H]2O[C@@H](CO)[C@H](O)[C@@H](O)[C@@H]2NC)[C@@H](N/C(N)=N\[H])[C@@H]1O [STREPTOMYCIN] | > 30 µM | > 30 µM | > 30 µM | > 30 µM | > 30 µM | > 30 µM | > 30 µM | > 30 µM | –
19 | CC(C)(C)NC[C@H](O)COc1nsnc1N1CCOCC1 [TIMOLOL] | > 30 µM | > 30 µM | > 30 µM | > 30 µM | > 30 µM | > 30 µM | > 30 µM | > 30 µM | –
20 | Cc1cccc(N(C)C(=S)Oc2ccc3ccccc3c2)c1 [TOLNAFTATE] | > 10 µM | > 10 µM | > 10 µM | > 10 µM | > 10 µM | > 10 µM | > 10 µM | – | –
21 | CN1[C@@H]2CC[C@H]1C[C@@H](OC(=O)c1c[nH]c3ccccc13)C2 [TROPISETRON] | > 30 µM | – | > 30 µM | > 30 µM | > 30 µM | > 30 µM | > 30 µM | > 30 µM | –
22 | COc1ccc(C(CN(C)C)C2(O)CCCCC2)cc1 (stereo unspecified) [VENLAFAXINE] | – | > 30 µM | > 30 µM | – | > 10 µM | > 30 µM | > 30 µM | – | –
